Patent US8952024B2, “Herbicidal pyrimidone derivatives” (E I du Pont de Nemours and Company, priority 2009, dated 2015)

Experiments:
Assay type in all cases: in vivo
[1] = tested on: barnyardgrass (Echinochloa crus-galli); experiment: Test E flooded paddy rice and weeds; conditions: applied to paddy water, 21 days
From the text: (§1) Three plastic pots (ca. 16-cm diameter) for each application were partially filled with sterilized Tama silt loam soil comprising a 35:50:15 ratio of sand, silt and clay and 2.6% organic matter. Separate plantings for each of the three pots were as follows. Seeds from the U.S. of ducksalad (Heteranthera limosa), sedge (smallflower umbrella sedge, Cyperus difformis), ricefield bulrush (Scirpus mucronatus) and redstem (purple redstem, Ammannia coccinea), were planted into one 16-cm pot for each rate. Seeds from the U.S. of flatsedge (rice flatsedge, Cyperus iria), sprangletop (bearded (i.e. Brdd.) sprangletop, Leptochloa fascicularis), one stand of 9 or 10 water seeded rice seedlings (Oryza sativa cv. ‘Japonica—M202’), and two stands of 3 or 4 transplanted rice seedlings (Oryza sativa cv. ‘Japonica—M202’) were planted into one 16-cm pot for each rate. Seeds from the U.S. of barnyardgrass (Echinochloa crus-galli), late watergrass (Echinochloa oryzicola), early watergrass (Echinochloa oryzoides) and junglerice (Echinochloa colona) were planted into one 16-cm pot for each rate. Plantings were sequential so that crop and weed species were at the 2.0 to 2.5-leaf stage at time of treatment.
(§2) Potted plants were grown in a greenhouse with day/night temperature settings of 30/27° C., and supplemental balanced lighting was provided to maintain a 16-hour photoperiod. Test pots were maintained in the greenhouse until test completion.
(§3) At time of treatment, test pots were flooded to 3 cm above the soil surface, treated by application of test compounds directly to the paddy water, and then maintained at that water depth for the duration of the test. Effects of treatments on rice and weeds were visually evaluated by comparison to untreated controls after 21 days. Plant response ratings, summarized in Table E, are based on a scale of 0 to 100 where 0 is no effect and 100 is complete control. A dash (-) response means no test result.

[2] = tested on: ducksalad (Heteranthera limosa); experiment: Test E flooded paddy rice and weeds; conditions: applied to paddy water, 21 days, scale 0 to 100
From the text: as §1, §2, §3

[3] = tested on: early watergrass (Echinochloa oryzoides); experiment: Test E flooded paddy rice and weeds; conditions: applied to paddy water, 21 days, scale 0 to 100
From the text: as §1, §2, §3

[4] = tested on: flatsedge (rice flatsedge, Cyperus iria); experiment: Test E flooded paddy rice and weeds; conditions: applied to paddy water, 21 days, scale 0 to 100
From the text: as §1, §2, §3

[5] = tested on: junglerice (Echinochloa colona); experiment: Test E flooded paddy rice and weeds; conditions: applied to paddy water, 21 days, scale 0 to 100
From the text: as §1, §2, §3

[6] = tested on: late watergrass (Echinochloa oryzicola); experiment: Test E flooded paddy rice and weeds; conditions: applied to paddy water, 21 days, scale 0 to 100
From the text: as §1, §2, §3

[7] = tested on: redstem (purple redstem, Ammannia coccinea); experiment: Test E flooded paddy rice and weeds; conditions: applied to paddy water, 21 days, scale 0 to 100
From the text: as §1, §2, §3

[8] = tested on: ricefield bulrush (Scirpus mucronatus); experiment: Test E flooded paddy rice and weeds; conditions: applied to paddy water, 21 days, scale 0 to 100
From the text: as §1, §2, §3

[9] = tested on: sedge (smallflower umbrella sedge, Cyperus difformis); experiment: Test E flooded paddy rice and weeds; conditions: applied to paddy water, 21 days, scale 0 to 100
From the text: as §1, §2, §3

[10] = tested on: transplanted rice seedlings (Oryza sativa cv. ‘Japonica—M202’); experiment: Test E flooded paddy rice and weeds; conditions: applied to paddy water, 21 days, scale 0 to 100
From the text: as §1, §2, §3

[11] = tested on: water seeded rice seedlings (Oryza sativa cv. ‘Japonica—M202’); experiment: Test E flooded paddy rice and weeds; conditions: applied to paddy water, 21 days, scale 0 to 100
From the text: as §1, §2, §3

[12] = tested on: naked crabgrass (Digitaria nuda); experiment: Test D pre-/postemergence plant response
Procedure, shortened: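 Pre + post applications; loam/sand soil; solvent + surfactant vehicle; post-em plants 1- to 4-leaf (2–18 cm); greenhouse 14–21 d; visual score 0 (none) to 100 (full control) vs untreated.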

SMILES: COc1ccc(-n2c(-c3ccccc3)ncc(C(=O)C3=C(O)CCCC3=O)c2=O)cc1 [Compound 4, 5-[(2-hydroxy-6-oxo-cyclohexen-1-yl)carbonyl]-3-(4-methoxyphenyl)-2-phenyl-4(3H)-pyrimidinone]
- Plant response rating, Barnyardgrass, Flood ([1]; 125 g ai/ha, scale 0 to 100): 0
- Plant response rating, Barnyardgrass, Flood ([1]; 250 g ai/ha, scale 0 to 100): 60
- Plant response rating, Barnyardgrass, Flood ([1]; 500 g ai/ha, scale 0 to 100 (0 no effect, 100 complete control)): 60
- Plant response rating, Ducksalad, Flood ([2]; 125 g ai/ha): 90
- Plant response rating, Ducksalad, Flood ([2]; 250 g ai/ha): 100
- Plant response rating, Ducksalad, Flood ([2]; 500 g ai/ha): 100
- Plant response rating, Watergrass, Early, Flood ([3]; 125 g ai/ha): 0
- Plant response rating, Watergrass, Early, Flood ([3]; 250 g ai/ha): 60
- Plant response rating, Watergrass, Early, Flood ([3]; 500 g ai/ha): 65
- Plant response rating, Flatsedge, Rice, Flood ([4]; 125 g ai/ha): 0
- Plant response rating, Flatsedge, Rice, Flood ([4]; 250 g ai/ha): 40
- Plant response rating, Flatsedge, Rice, Flood ([4]; 500 g ai/ha): 90
- Plant response rating, Junglerice, Flood ([5]; 125 g ai/ha): 0
- Plant response rating, Junglerice, Flood ([5]; 250 g ai/ha): 25
- Plant response rating, Junglerice, Flood ([5]; 500 g ai/ha): 50
- Plant response rating, Watergrass, Late, Flood ([6]; 125 g ai/ha): 0
- Plant response rating, Watergrass, Late, Flood ([6]; 250 g ai/ha): 15
- Plant response rating, Watergrass, Late, Flood ([6]; 500 g ai/ha): 60
- Plant response rating, Redstem, Flood ([7]; 125 g ai/ha): 80
- Plant response rating, Redstem, Flood ([7]; 250 g ai/ha): 80
- Plant response rating, Redstem, Flood ([7]; 500 g ai/ha): 85
- Plant response rating, Bulrush, Ricefield, Flood ([8]; 125 g ai/ha): 40
- Plant response rating, Bulrush, Ricefield, Flood ([8]; 250 g ai/ha): 80
- Plant response rating, Bulrush, Ricefield, Flood ([8]; 500 g ai/ha): 80
- Plant response rating, Sedge, Umbrella, Flood ([9]; 125 g ai/ha): 90
- Plant response rating, Sedge, Umbrella, Flood ([9]; 250 g ai/ha): 95
- Plant response rating, Sedge, Umbrella, Flood ([9]; 500 g ai/ha): 100
- Plant response rating, Rice, Transplanted, Flood ([10]; 125 g ai/ha): 0
- Plant response rating, Rice, Transplanted, Flood ([10]; 250 g ai/ha): 0
- Plant response rating, Rice, Transplanted, Flood ([10]; 500 g ai/ha): 15
- Plant response rating, Rice, Water Seeded, Flood ([11]; 125 g ai/ha): 10
- Plant response rating, Rice, Water Seeded, Flood ([11]; 250 g ai/ha): 20
- Plant response rating, Rice, Water Seeded, Flood ([11]; 500 g ai/ha): 50

SMILES: Cc1ccc(-n2c(-c3ccccc3)ncc(C(=O)C3=C(O)CCCC3=O)c2=O)c(C)c1 [Compound 28]
- Plant response rating, Barnyardgrass, Flood ([1]; 32 g ai/ha, scale 0 to 100): 0
- Plant response rating, Barnyardgrass, Flood ([1]; 64 g ai/ha, scale 0 to 100): 0
- Plant response rating, Barnyardgrass, Flood ([1]; 125 g ai/ha, scale 0 to 100): 0
- Plant response rating, Barnyardgrass, Flood ([1]; 250 g ai/ha, scale 0 to 100): 0
- Plant response rating, Ducksalad, Flood ([2]; 32 g ai/ha): 0
- Plant response rating, Ducksalad, Flood ([2]; 64 g ai/ha): 0
- Plant response rating, Ducksalad, Flood ([2]; 125 g ai/ha): 80
- Plant response rating, Ducksalad, Flood ([2]; 250 g ai/ha): 100
- Plant response rating, Watergrass, Early, Flood ([3]; 32 g ai/ha): 0
- Plant response rating, Watergrass, Early, Flood ([3]; 64 g ai/ha): 0
- Plant response rating, Watergrass, Early, Flood ([3]; 125 g ai/ha): 0
- Plant response rating, Watergrass, Early, Flood ([3]; 250 g ai/ha): 20
- Plant response rating, Flatsedge, Rice, Flood ([4]; 32 g ai/ha): 0
- Plant response rating, Flatsedge, Rice, Flood ([4]; 64 g ai/ha): 0
- Plant response rating, Flatsedge, Rice, Flood ([4]; 125 g ai/ha): 0
- Plant response rating, Flatsedge, Rice, Flood ([4]; 250 g ai/ha): 45
- Plant response rating, Junglerice, Flood ([5]; 32 g ai/ha): 0
- Plant response rating, Junglerice, Flood ([5]; 64 g ai/ha): 0
- Plant response rating, Junglerice, Flood ([5]; 125 g ai/ha): 0
- Plant response rating, Junglerice, Flood ([5]; 250 g ai/ha): 0
- Plant response rating, Watergrass, Late, Flood ([6]; 32 g ai/ha): 0
- Plant response rating, Watergrass, Late, Flood ([6]; 64 g ai/ha): 0
- Plant response rating, Watergrass, Late, Flood ([6]; 125 g ai/ha): 0
- Plant response rating, Watergrass, Late, Flood ([6]; 250 g ai/ha): 0
- Plant response rating, Redstem, Flood ([7]; 32 g ai/ha): 0
- Plant response rating, Redstem, Flood ([7]; 64 g ai/ha): 40
- Plant response rating, Redstem, Flood ([7]; 125 g ai/ha): 50
- Plant response rating, Redstem, Flood ([7]; 250 g ai/ha): 90
- Plant response rating, Bulrush, Ricefield, Flood ([8]; 32 g ai/ha): 20
- Plant response rating, Bulrush, Ricefield, Flood ([8]; 64 g ai/ha): 30
- Plant response rating, Bulrush, Ricefield, Flood ([8]; 125 g ai/ha): 35
- Plant response rating, Bulrush, Ricefield, Flood ([8]; 250 g ai/ha): 65
- Plant response rating, Sedge, Umbrella, Flood ([9]; 32 g ai/ha): 0
- Plant response rating, Sedge, Umbrella, Flood ([9]; 64 g ai/ha): 85
- Plant response rating, Sedge, Umbrella, Flood ([9]; 125 g ai/ha): 90
- Plant response rating, Sedge, Umbrella, Flood ([9]; 250 g ai/ha): 100
- Plant response rating, Rice, Transplanted, Flood ([10]; 32 g ai/ha): 0
- Plant response rating, Rice, Transplanted, Flood ([10]; 64 g ai/ha): 15
- Plant response rating, Rice, Transplanted, Flood ([10]; 125 g ai/ha): 15
- Plant response rating, Rice, Transplanted, Flood ([10]; 250 g ai/ha): 15
- Plant response rating, Rice, Water Seeded, Flood ([11]; 32 g ai/ha): 45
- Plant response rating, Rice, Water Seeded, Flood ([11]; 64 g ai/ha): 60
- Plant response rating, Rice, Water Seeded, Flood ([11]; 125 g ai/ha): 65
- Plant response rating, Rice, Water Seeded, Flood ([11]; 250 g ai/ha): 85

SMILES: O=C1CCCC(O)=C1C(=O)c1cnc(-c2ccccc2)n(CC2CCCO2)c1=O (stereo not shown) [Compound 59]
- Plant response rating, Crabgrass, Naked ([12]; Postemergence, 31 g ai/ha, scale 0 to 100): 30
- Plant response rating, Crabgrass, Naked ([12]; Postemergence, 62 g ai/ha, scale 0 to 100 (0 no effect, 100 complete control)): 50
- Plant response rating, Crabgrass, Naked ([12]; Postemergence, 125 g ai/ha, scale 0 to 100 (0 no effect, 100 complete control)): 70
- Plant response rating, Crabgrass, Naked ([12]; Postemergence, 16 g ai/ha, scale 0 to 100): 20
- Plant response rating, Crabgrass, Naked ([12]; Preemergence, 16 g ai/ha, scale 0 to 100, 0 no effect, 100 complete control): 0
- Plant response rating, Crabgrass, Naked ([12]; Preemergence, 31 g ai/ha, scale 0 to 100 (0 no effect, 100 complete control)): 0
- Plant response rating, Crabgrass, Naked ([12]; Preemergence, 62 g ai/ha, scale 0 to 100): 65
- Plant response rating, Crabgrass, Naked ([12]; Preemergence, 125 g ai/ha, scale 0 to 100): 95
